The source of these data is patent publication US20240124418A1 (BioTheryX, Inc., priority 2020, published 2024).

A value given as a limit tells only on which side of the number the result lay.

The assay concerns TNF-α. Briefly: Cell-based TNF-α inhibition assay (LPS-induced PBMCs, Meso Scale). As to conditions: PBMC, PBMCs pretreated 1 h, LPS 100 ng/mL 18-24 h, percentage of stimulated DMSO control; for inhibition at 0.1 µM: compound concentration 0.1 μM; for inhibition at 1 µM: compound concentration 1 μM. Here is the method:
Example B1. Cell-Based TNF-α Inhibition Assay
Frozen primary blood mononuclear cells (PBMCs) were quick thawed, washed once with RPMI 1640 media supplemented with 10% fetal bovine serum, 1% penicillin, and 1% streptomycin, and plated in a 96 well plate at 200,000 cells per well. The cells were pretreated with DMSO only as a control or a compound for 1 h, and then induced with LPS (lipopolysaccharide) (100 ng/mL) for 18-24 h. The supernatant was analyzed for TNF-α using the Meso Scale assay. Compound activity was determined as a percentage of the stimulated DMSO control. The results are summarized in Table 1, where A represents a percent inhibition value ≥60%; B represents a percent inhibition value <60% and ≥40%; C represents a percent inhibition value <40% and ≥20%; and D represents a single percent inhibition value <20%.

`CCOc1cc([C@@H](CS(C)(=O)=O)N2C(=O)c3cc(C#CCCCCCN4CCC(c5cc(F)cc6c5CN(C5CCC(=O)NC5=O)C6=O)CC4)cc(NC(C)=O)c3C2=O)ccc1OC` (stereo partly drawn) [Compound A2, N-(6-(7-(4-(2-(2,6-Dioxopiperidin-3-yl)-6-fluoro-1-oxoisoindolin-4-yl)-piperidin-1-yl)hept-1-yn-1-yl)-2-((S)-1-(3-ethoxy-4-methoxyphenyl)-2-(methylsulfonyl)ethyl)-1,3-dioxoisoindolin-4-yl)acetamide]: the inhibition at 0.1 µM is at least 60%.

Turning to `CCOc1cc([C@@H](CS(C)(=O)=O)N2C(=O)c3cc(CCCN4CCC(c5cc(F)cc6c5CN(C5CCC(=O)NC5=O)C6=O)CC4)cc(NC(C)=O)c3C2=O)ccc1OC` (stereo partly drawn) [Compound A5, N-(6-(3-(4-(2-(2,6-Dioxopiperidin-3-yl)-6-fluoro-1-oxoisoindolin-4-yl)piperidin-1-yl)propyl)-2-((S)-1-(3-ethoxy-4-methoxyphenyl)-2-(methylsulfonyl)ethyl)-1,3-dioxoisoindolin-4-yl)acetamide], the inhibition at 0.1 µM is at least 60%.

With `CCOc1cc([C@@H](CS(C)(=O)=O)N2C(=O)c3cccc(NC(=O)CCCCCCCCNCc4ccc(COc5cccc6c5CN(C5CCC(=O)NC5=O)C6=O)cc4)c3C2=O)ccc1OC` (stereo partly drawn) [Compound A16, 9-({[4-({[2-(2,6-Dioxopiperidin-3-yl)-1-oxo-2,3-dihydro-1H-isoindol-4-yl]oxy}-methyl)phenyl]methyl}amino)-N-{2-[(1S)-1-(3-ethoxy-4-methoxyphenyl)-2-methanesulfonylethyl]-1,3-dioxo-2,3-dihydro-1H-isoindol-4-yl}nonanamide], the inhibition at 0.1 µM is at least 60% and the inhibition at 1 µM is at least 60%.

Consider `CCOc1cc([C@@H](CS(C)(=O)=O)N2C(=O)c3c(CCCCCCCCCCCCN4CCC(c5cc(F)cc6c5CN(C5CCC(=O)NC5=O)C6=O)CC4)ccc(NC(C)=O)c3C2=O)ccc1OC` (stereo partly drawn) [Compound A17, N-[7-(12-{4-[2-(2,6-Dioxopiperidin-3-yl)-6-fluoro-1-oxo-2,3-dihydro-1H-isoindol-4-yl]piperidin-1-yl}dodecyl)-2-[(1S)-1-(3-ethoxy-4-methoxyphenyl)-2-methanesulfonylethyl]-1,3-dioxo-2,3-dihydro-1H-isoindol-4-yl]acetamide], for which the inhibition at 0.1 µM was at least 60% and the inhibition at 1 µM was at least 60%.

Turning to `CCOc1cc([C@@H](CS(C)(=O)=O)N2C(=O)c3c(N)ccc(CCCCCCCCCCCCN4CCC(c5cc(F)cc6c5CN(C5CCC(=O)NC5=O)C6=O)CC4)c3C2=O)ccc1OC` (stereo partly drawn) [Compound A18, 4-Amino-7-(12-{4-[2-(2,6-Dioxopiperidin-3-yl)-6-fluoro-1-oxo-2,3-dihydro-1H-isoindol-4-yl]piperidin-1-yl}dodecyl)-2-[(1S)-1-(3-ethoxy-4-methoxyphenyl)-2-methanesulfonylethyl]-2,3-dihydro-1H-isoindole-1,3-dione], the inhibition at 0.1 µM was at least 60% and the inhibition at 1 µM is at least 60%.

In the case of `CCOc1cc([C@@H](CS(C)(=O)=O)N2C(=O)c3cccc(NC(=O)CCCCCCCCn4cc(-c5cc6c(cc5F)C(=O)N(C5CCC(=O)NC5=O)C6)nn4)c3C2=O)ccc1OC` (stereo partly drawn) [Compound A23, 9-{4-[2-(2,6-Dioxopiperidin-3-yl)-6-fluoro-1-oxo-2,3-dihydro-1H-isoindol-5-yl]-1H-1,2,3-triazol-1-yl}-N-{2-[(1S)-1-(3-ethoxy-4-methoxyphenyl)-2-methanesulfonylethyl]-1,3-dioxo-2,3-dihydro-1H-isoindol-4-yl}nonanamide], the inhibition at 0.1 µM is at least 60% and the inhibition at 1 µM is at least 60%.

Consider `CCOc1cc([C@@H](CS(C)(=O)=O)N2C(=O)c3cccc(NC(=O)CCCc4cn(CCN5CCC(c6cc7c(cc6F)C(=O)N(C6CCC(=O)NC6=O)C7)CC5)nn4)c3C2=O)ccc1OC` (stereo partly drawn) [Compound A24, 4-[1-(2-{4-[2-(2,6-Dioxopiperidin-3-yl)-6-fluoro-1-oxo-2,3-dihydro-1H-isoindol-5-yl]piperidin-1-yl}ethyl)-1H-1,2,3-triazol-4-yl]-N-{2-[(1S)-1-(3-ethoxy-4-methoxyphenyl)-2-methanesulfonylethyl]-1,3-dioxo-2,3-dihydro-1H-isoindol-4-yl}butanamide], for which the inhibition at 0.1 µM was at least 60% and the inhibition at 1 µM was at least 60%.

With `CCOc1cc([C@@H](CS(C)(=O)=O)N2C(=O)c3cccc(NCCCCCCCCCN4CCC(c5cc6c(cc5F)C(=O)N(C5CCC(=O)NC5=O)C6)CC4)c3C2=O)ccc1OC` (stereo partly drawn) [Compound A25, 4-[(9-{4-[2-(2,6-Dioxopiperidin-3-yl)-6-fluoro-1-oxo-2,3-dihydro-1H-isoindol-5-yl]piperidin-1-yl}nonyl)amino]-2-[(1S)-1-(3-ethoxy-4-methoxyphenyl)-2-methanesulfonylethyl]-2,3-dihydro-1H-isoindole-1,3-dione], the inhibition at 0.1 µM is at least 60% and the inhibition at 1 µM was at least 60%.

For `CCOc1cc([C@@H](CS(C)(=O)=O)N2C(=O)c3cccc(NC(=O)CCCCCCCCN4CCC(c5ccc6c(c5)CN(C5CCC(=O)NC5=O)C6=O)CC4)c3C2=O)ccc1OC` (stereo partly drawn) [Compound A26, 9-{4-[2-(2,6-Dioxopiperidin-3-yl)-1-oxo-2,3-dihydro-1H-isoindol-5-yl]piperidin-1-yl}-N-{2-[(1S)-1-(3-ethoxy-4-methoxyphenyl)-2-methanesulfonylethyl]-1,3-dioxo-2,3-dihydro-1H-isoindol-4-yl}nonanamide], the inhibition at 0.1 µM was at least 60% and the inhibition at 1 µM was at least 60%.

`CCOc1cc([C@@H](CS(C)(=O)=O)N2C(=O)c3cccc(CCCCCCCCCCN4CCC(c5cc6c(cc5F)C(=O)N(C5CCC(=O)NC5=O)C6)CC4)c3C2=O)ccc1OC` (stereo partly drawn) [Compound A27, 4-(10-{4-[2-(2,6-Dioxopiperidin-3-yl)-6-fluoro-1-oxo-2,3-dihydro-1H-isoindol-5-yl]piperidin-1-yl}decyl)-2-[(1S)-1-(3-ethoxy-4-methoxyphenyl)-2-methanesulfonylethyl]-2,3-dihydro-1H-isoindole-1,3-dione]: the inhibition at 0.1 µM was at least 60% and the inhibition at 1 µM is at least 60%.

As to `CCOc1cc([C@@H](CS(C)(=O)=O)N2C(=O)c3cccc(NC(=O)CN4CCN(CCCCN5CCC(c6cc7c(cc6F)C(=O)N(C6CCC(=O)NC6=O)C7)CC5)CC4)c3C2=O)ccc1OC` (stereo partly drawn) [Compound A28, 2-[4-(4-{4-[2-(2,6-Dioxopiperidin-3-yl)-6-fluoro-1-oxo-2,3-dihydro-1H-isoindol-5-yl]piperidin-1-yl}butyl)piperazin-1-yl]-N-{2-[(1S)-1-(3-ethoxy-4-methoxyphenyl)-2-methanesulfonylethyl]-1,3-dioxo-2,3-dihydro-1H-isoindol-4-yl}acetamide], the inhibition at 0.1 µM was 40 to 60% and the inhibition at 1 µM is at least 60%.

For `CCOc1cc([C@@H](CS(C)(=O)=O)N2C(=O)c3cccc(NC(=O)CCCCCN4CCC(N5CCC(c6cc7c(cc6F)C(=O)N(C6CCC(=O)NC6=O)C7)CC5)CC4)c3C2=O)ccc1OC` (stereo partly drawn) [Compound A29, 6-{4-[2-(2,6-Dioxopiperidin-3-yl)-6-fluoro-1-oxo-2,3-dihydro-1H-isoindol-5-yl]-[1,4′-bipiperidin]-1′-yl}-N-{2-[(1S)-1-(3-ethoxy-4-methoxyphenyl)-2-methanesulfonylethyl]-1,3-dioxo-2,3-dihydro-1H-isoindol-4-yl}hexanamide], the inhibition at 0.1 µM fell in the range of 40 to 60% and the inhibition at 1 µM is at least 60%.

Consider `CCOc1cc([C@@H](CS(C)(=O)=O)N2C(=O)c3cccc(NC(=O)CCCCCCNCc4ccc(OCc5scc6c5CN([C@H]5CCC(=O)NC5=O)C6=O)cc4)c3C2=O)ccc1OC` [Compound A38, 7-((4-((5-((S)-2,6-Dioxopiperidin-3-yl)-4-oxo-5,6-dihydro-4H-thieno[3,4-c]pyrrol-1-yl)methoxy)benzyl)amino)-N-(2-((S)-1-(3-ethoxy-4-methoxyphenyl)-2-(methylsulfonyl)ethyl)-1,3-dioxoisoindolin-4-yl)heptanamide], for which the inhibition at 0.1 µM was at least 60%.

Take `CCOc1cc([C@@H](CS(C)(=O)=O)N2C(=O)c3cccc(NC(=O)CCCCNCc4ccc(OCc5scc6c5CN(C5CCC(=O)NC5=O)C6=O)cc4)c3C2=O)ccc1OC` (stereo partly drawn) [Compound A39, 5-((4-((5-(2,6-Dioxopiperidin-3-yl)-4-oxo-5,6-dihydro-4H-thieno[3,4-c]pyrrol-1-yl)methoxy)benzyl)amino)-N-(2-((S)-1-(3-ethoxy-4-methoxyphenyl)-2-(methylsulfonyl)ethyl)-1,3-dioxoisoindolin-4-yl)pentanamide]: the inhibition at 0.1 µM is at least 60%.

With `CCOc1cc([C@@H](CS(C)(=O)=O)N2C(=O)c3cccc(NC(=O)CCCN4CCN(CCNCc5ccc(OCc6scc7c6CN(C6CCC(=O)NC6=O)C7=O)cc5)CC4)c3C2=O)ccc1OC` (stereo partly drawn) [Compound A45, 4-[4-(2-{[(4-{[5-(2,6-Dioxopiperidin-3-yl)-4-oxo-4H,5H,6H-thieno[3,4-c]pyrrol-1-yl]methoxy}phenyl)methyl]amino}ethyl)piperazin-1-yl]-N-{2-[(1S)-1-(3-ethoxy-4-methoxy-phenyl)-2-methanesulfonylethyl]-1,3-dioxo-2,3-dihydro-1H-isoindol-4-yl}butanamide], the inhibition at 0.1 µM is at least 60% and the inhibition at 1 µM was at least 60%.

Turning to `CCOc1cc([C@@H](CS(C)(=O)=O)N2C(=O)c3cccc(NC(=O)CCCCCCCCCCN(C)Cc4ccc(OCc5scc6c5CN(C5CCC(=O)NC5=O)C6=O)cc4)c3C2=O)ccc1OC` (stereo partly drawn) [Compound A46, 11-{[(4-{[5-(2,6-Dioxopiperidin-3-yl)-4-oxo-4H,5H,6H-thieno[3,4-c]pyrrol-1-yl]methoxy}phenyl)methyl](methyl)amino}-N-{2-[(1S)-1-(3-ethoxy-4-methoxyphenyl)-2-methanesulfonylethyl]-1,3-dioxo-2,3-dihydro-1H-isoindol-4-yl}undecanamide], the inhibition at 0.1 µM was at least 60% and the inhibition at 1 µM is at least 60%.
